Measurements from PubChem BioAssay (NCI).
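Five concentrations, 48 hours, 96-well plates. Abbreviation: GI50, concentration required for 50% inhibition of growth. At the TGI there is no net growth.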

How the values were obtained:
Assay in all cases: DTP human tumour cell line panel, 48 h
SW-620 colon = tested on: SW-620 colon
M14 melanoma = tested on: M14 melanoma
SN12C renal = tested on: SN12C renal
U251 CNS = tested on: U251 CNS
T-47D breast = tested on: T-47D breast
IGROV1 ovarian = tested on: IGROV1 ovarian
SF-295 CNS = tested on: SF-295 CNS
NCI-H460 lung = tested on: NCI-H460 lung
SK-MEL-2 melanoma = tested on: SK-MEL-2 melanoma
NCI-H522 lung = tested on: NCI-H522 lung
HOP-62 NSCLC = tested on: HOP-62 NSCLC
MDA-MB-435 = tested on: MDA-MB-435
EKVX NSCLC = tested on: EKVX NSCLC
HOP-92 NSCLC = tested on: HOP-92 NSCLC
HT29 colon = tested on: HT29 colon
UACC-257 melanoma = tested on: UACC-257 melanoma
HCT-15 colon = tested on: HCT-15 colon
SK-MEL-5 melanoma = tested on: SK-MEL-5 melanoma
LOX IMVI melanoma = tested on: LOX IMVI melanoma
SF-539 CNS = tested on: SF-539 CNS
NCI-H226 lung = tested on: NCI-H226 lung
CAKI-1 renal = tested on: CAKI-1 renal
UO-31 renal = tested on: UO-31 renal
HCC-2998 colon = tested on: HCC-2998 colon
KM12 colon = tested on: KM12 colon
OVCAR-8 ovarian = tested on: OVCAR-8 ovarian
HCT-116 colon = tested on: HCT-116 colon
BT-549 breast = tested on: BT-549 breast
786-0 renal = tested on: 786-0 renal
ACHN renal = tested on: ACHN renal
K-562 leukemia = tested on: K-562 leukemia
OVCAR-5 ovarian = tested on: OVCAR-5 ovarian
UACC-62 melanoma = tested on: UACC-62 melanoma
SK-MEL-28 melanoma = tested on: SK-MEL-28 melanoma
A498 renal = tested on: A498 renal
MALME-3M melanoma = tested on: MALME-3M melanoma
CCRF-CEM leukemia = tested on: CCRF-CEM leukemia
SNB-19 CNS = tested on: SNB-19 CNS
MOLT-4 leukemia = tested on: MOLT-4 leukemia
TK-10 renal = tested on: TK-10 renal
SF-268 CNS = tested on: SF-268 CNS
A549 NSCLC = tested on: A549 NSCLC
OVCAR-3 ovarian = tested on: OVCAR-3 ovarian
RPMI-8226 leukemia = tested on: RPMI-8226 leukemia
PC-3 prostate = tested on: PC-3 prostate
MCF7 breast = tested on: MCF7 breast
NCI-H23 lung = tested on: NCI-H23 lung
SK-OV-3 ovarian = tested on: SK-OV-3 ovarian
DU-145 prostate = tested on: DU-145 prostate
HS 578T breast = tested on: HS 578T breast
RXF 393 renal = tested on: RXF 393 renal
MDA-MB-231 breast = tested on: MDA-MB-231 breast
NCI/ADR-RES ovarian = tested on: NCI/ADR-RES ovarian
COLO 205 colon = tested on: COLO 205 colon
OVCAR-4 ovarian = tested on: OVCAR-4 ovarian

## C=C1C(=O)O[C@H]2[C@H]1CC/C(COC(=O)CCSCCC(=O)OC/C1=C/CC[C@@]3(C)O[C@H]3[C@H]3OC(=O)C(=C)[C@@H]3CC1)=C\CC[C@@]1(C)O[C@@H]21
SW-620 colon
  GI50: 556 nM
  TGI: 2020 nM
M14 melanoma
  GI50: 1520 nM
  TGI: 3350 nM
SN12C renal
  GI50: 1350 nM
  TGI: 3620 nM
U251 CNS
  GI50: 1390 nM
  TGI: 3450 nM
T-47D breast
  GI50: 1300 nM
  TGI: 3210 nM
IGROV1 ovarian
  GI50: 1300 nM
  TGI: 3250 nM
SF-295 CNS
  GI50: 1770 nM
  TGI: 3940 nM
NCI-H460 lung
  GI50: 1860 nM
  TGI: 4210 nM
SK-MEL-2 melanoma
  GI50: 2180 nM
  TGI: 4880 nM
NCI-H522 lung
  GI50: 686 nM
  TGI: 2290 nM
HOP-62 NSCLC
  GI50: 2360 nM
  TGI: 7940 nM
MDA-MB-435
  GI50: 1630 nM
  TGI: 4190 nM
EKVX NSCLC
  GI50: 1420 nM
  TGI: 3390 nM
HOP-92 NSCLC
  GI50: 1260 nM
  TGI: 2700 nM
HT29 colon
  GI50: 496 nM
  TGI: 1730 nM
UACC-257 melanoma
  GI50: 1640 nM
  TGI: 3600 nM
HCT-15 colon
  GI50: 1110 nM
  TGI: 2460 nM
SK-MEL-5 melanoma
  GI50: 1640 nM
  TGI: 3140 nM
LOX IMVI melanoma
  GI50: 440 nM
  TGI: 1600 nM
SF-539 CNS
  GI50: 1200 nM
  TGI: 2590 nM
NCI-H226 lung
  GI50: 3000 nM
  TGI: 8960 nM
CAKI-1 renal
  GI50: 1620 nM
  TGI: 3120 nM
UO-31 renal
  GI50: 1070 nM
  TGI: 2270 nM
HCC-2998 colon
  GI50: 1890 nM
  TGI: 3520 nM
KM12 colon
  GI50: 1750 nM
  TGI: 3520 nM
OVCAR-8 ovarian
  GI50: 1570 nM
  TGI: 3960 nM
HCT-116 colon
  GI50: 206 nM
  TGI: 609 nM
BT-549 breast
  GI50: 1290 nM
  TGI: 2660 nM
786-0 renal
  GI50: 904 nM
  TGI: 2210 nM
ACHN renal
  GI50: 658 nM
  TGI: 1890 nM
K-562 leukemia
  GI50: 371 nM
  TGI: 10200 nM
OVCAR-5 ovarian
  GI50: 2110 nM
  TGI: 4210 nM
UACC-62 melanoma
  GI50: 1700 nM
  TGI: 3610 nM
SK-MEL-28 melanoma
  GI50: 1390 nM
  TGI: 2860 nM
A498 renal
  GI50: 1700 nM
  TGI: 4780 nM
MALME-3M melanoma
  GI50: 1120 nM
  TGI: 2730 nM
CCRF-CEM leukemia
  GI50: 314 nM
  TGI: 1250 nM
SNB-19 CNS
  GI50: 2430 nM
  TGI: 7290 nM
MOLT-4 leukemia
  GI50: 422 nM
  TGI: 2120 nM
TK-10 renal
  GI50: 1500 nM
  TGI: 2980 nM
SF-268 CNS
  GI50: 1630 nM
  TGI: 4540 nM
A549 NSCLC
  GI50: 2540 nM
  TGI: 7560 nM
OVCAR-3 ovarian
  GI50: 451 nM
  TGI: 1690 nM
RPMI-8226 leukemia
  GI50: 383 nM
  TGI: 1830 nM
PC-3 prostate
  GI50: 1820 nM
  TGI: 4800 nM
MCF7 breast
  GI50: 418 nM
  TGI: 1860 nM
NCI-H23 lung
  GI50: 1890 nM
  TGI: 4200 nM
SK-OV-3 ovarian
  GI50: 4100 nM
  TGI: 13800 nM
DU-145 prostate
  GI50: 1360 nM
  TGI: 2710 nM
HS 578T breast
  GI50: 3180 nM
  TGI: 24500 nM
RXF 393 renal
  GI50: 767 nM
  TGI: 2150 nM
MDA-MB-231 breast
  GI50: 1090 nM
  TGI: 2550 nM
NCI/ADR-RES ovarian
  GI50: 3210 nM
  TGI: 11000 nM
COLO 205 colon
  GI50: 558 nM
  TGI: 1970 nM
OVCAR-4 ovarian
  GI50: 1660 nM
  TGI: 3710 nM
